PubChem BioAssay AID608 (Sanford-Burnham Center for Chemical Genomics, 2007)
The source made the active and inactive calls. The rule behind the calls is not given here.

Molecular target: Peptidyl-prolyl cis-trans isomerase FKBP1A (Homo sapiens) (UniProt P62942)
Experiment: small-molecule binding to FKBP12 – biophysical, NMR detection (AID 608)
Settings: purified FKBP12

Chain of Peptidyl-prolyl cis-trans isomerase FKBP1A (Homo sapiens) (P62942 whole entry, looked up): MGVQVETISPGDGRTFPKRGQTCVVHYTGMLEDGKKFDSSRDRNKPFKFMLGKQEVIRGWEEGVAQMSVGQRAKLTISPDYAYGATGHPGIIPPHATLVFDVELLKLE

Compound | Kd
CS(=O)(=O)N1CCN(C(=O)c2ccccc2F)CC1 | > 4 mM (inactive)
S=C(NC1=NCCS1)Nc1ccccc1 | > 4 mM (inactive)
CC(=O)Nc1nnc(-c2ccccc2)o1 | > 4 mM (inactive)
CC(=O)c1cccc(N=C2NC(=O)CS2)c1 | > 4 mM (inactive)
O=C(OC[C@H]1O[C@H](OC(=O)c2cc(O)c(O)c(OC(=O)c3cc(O)c(O)c(O)c3)c2)[C@H](OC(=O)c2cc(O)c(O)c(OC(=O)c3cc(O)c(O)c(O)c3)c2)[C@@H](OC(=O)c2cc(O)c(O)c(OC(=O)c3cc(O)c(O)c(O)c3)c2)[C@@H]1OC(=O)c1cc(O)c(O)c(OC(=O)c2cc(O)c(O)c(O)c2)c1)c1cc(O)c(O)c(OC(=O)c2cc(O)c(O)c(O)c2)c1 | > 4 mM (inactive)
CC1(C)C(=O)C=C[C@@]2(C)C1C[C@@H](O)[C@]1(C)C2CC[C@@]2(C)[C@H](c3ccoc3)OC(=O)[C@H]3O[C@]321 (stereo partly specified) | > 4 mM (inactive)
C[n+]1cc2c3c(ccc2c2ccc4cc5c(cc4c21)OCO5)OCO3 | > 4 mM (inactive)
O=C1NC(=O)C(Cc2ccccc2)C(=O)N1 | > 4 mM (inactive)
Nc1ncc2[nH]cnc2n1 | > 4 mM (inactive)
Cc1occc1C(=O)NCc1ccccc1F | > 4 mM (inactive)
NC(=O)COc1cccc2cccnc12 | > 4 mM (inactive)
C=CC(=O)N1CC2CC(C1)c1cccc(=O)n1C2 (stereo unspecified) | > 4 mM (inactive)
O=C(O)Cc1csc(-c2ccccc2)n1 | > 4 mM (inactive)
O=C(CSc1ccccc1)N1CCC2(CC1)OCCO2 | > 4 mM (inactive)
Cc1c(C)[n+](=O)c(-c2cccs2)c(C)n1[O-] | > 4 mM (inactive)
Cc1[nH]c(=O)[nH]c(=O)c1N1CCOCC1 | > 4 mM (inactive)
O=C(O)c1ccc(-c2cccs2)cc1 | > 4 mM (inactive)
C[C@]12C=CC(=O)C=C1CCC1C2CC[C@]2(C)C(=O)CCC12 (stereo partly specified) | > 4 mM (inactive)
O=C(NCCO)c1cc2ccccc2cc1O | > 4 mM (inactive)

Compound | Kd
c1ccc2c(c1)CN1CCCC1=N2 | > 4 mM (inactive)
c1coc(CNc2nc(-c3ccncc3)cs2)c1 | > 4 mM (inactive)
NC(=O)CSc1ccc(Br)cc1 | > 4 mM (inactive)
CNCc1ccco1 | > 4 mM (inactive)
C[C@@H]1C(=O)OC2[C@H](O)C34[C@@H]5OC(=O)[C@@]3(O[C@@H]3OC(=O)[C@H](O)[C@@]34[C@H](C(C)(C)C)[C@H]5O)[C@]21O (stereo partly specified) | > 4 mM (inactive)
CC(C)NC(=O)c1nc2ccccc2s1 | > 4 mM (inactive)
CC1O[C@@H](Oc2c(-c3ccc(O)c(O)c3)oc3cc(O)cc(O)c3c2=O)[C@H](O)[C@H](O)[C@H]1O (stereo partly specified) | > 4 mM (inactive)
CC1=CC2C(C(C)C)CCC(C)(O)C2CC1 (stereo unspecified) | > 4 mM (inactive)
COc1cccc(NC(=O)c2ncn[nH]2)c1 | > 4 mM (inactive)
Cn1nnc2cc(C(=O)NC3CCCCC3)ccc21 | > 4 mM (inactive)
CCCn1c(S(=O)(=O)O)nc2ccccc21 | > 4 mM (inactive)
CC1=CC(=O)CC(C)(C)C1(O)/C=C/C(C)=C\C(=O)O (stereo unspecified) | > 4 mM (inactive)
NC(=O)c1ccccc1NC(=O)c1cccnc1 | > 4 mM (inactive)
COc1ccc(NC(=O)/C=N/O)cc1 | > 4 mM (inactive)
O=C(O)c1ccnc2ccccc12 | > 4 mM (inactive)
CC1(C)CC23C(=O)CCC(O)C2(C)CCC13 (stereo unspecified) | > 4 mM (inactive)
CN(C)C1CCS(=O)(=O)C1 (stereo unspecified) | > 4 mM (inactive)
O=CN1CCN(C(=O)c2ccco2)CC1 | > 4 mM (inactive)
S=C(NCC1CCCO1)NC1CC1 (stereo unspecified) | > 4 mM (inactive)

Compound | Kd
O=C(Nc1ccon1)c1csc2c1CCCC2 | > 4 mM (inactive)
CC1(C)O[C@H]2[C@H](O)C[C@](O)(C(N)=O)C[C@H]2O1 | > 4 mM (inactive)
O=C(NN=C1CCCC1)c1ccncc1 | > 4 mM (inactive)
CN(Cc1nc2ccccc2n1C)S(C)(=O)=O | > 4 mM (inactive)
C=CCCCCCCCCCCCC(O)CC(O)COC(C)=O (stereo unspecified) | > 4 mM (inactive)
Cc1cc(O)c2c(c1O)C(=O)c1c(O)cc(C)c(O)c1C2=O | > 4 mM (inactive)
S=C(c1ccc(N2CCOCC2)cc1)N1CCOCC1 | > 4 mM (inactive)
S=c1oc(-c2ccncc2)nn1CCc1ccncc1 | inactive
NS(=O)(=O)c1ccc(N2CCCC2=O)cc1 | > 4 mM (inactive)
C[C@@H]1O[C@@H](O[C@H]2C[C@@H](O)[C@]3(CO)C4C(CC[C@]3(O)C2)[C@@]2(O)CC[C@H](C3=CC(=O)OC3)[C@@]2(C)C[C@H]4O)[C@H](O)[C@H](O)[C@H]1O (stereo partly specified) | > 4 mM (inactive)
O=C1NC(=O)C(C(C[N+](=O)[O-])c2ccc(O)cc2)C(=O)N1 (stereo unspecified) | > 4 mM (inactive)
O=C(NCc1ccccc1Br)c1ccco1 | > 4 mM (inactive)
CC(=O)c1cnc2nc(C(F)(F)F)nn2c1C | > 4 mM (inactive)
NC(=O)CC(=O)NC12CC3CC(CC(C3)C1)C2 | > 4 mM (inactive)
CCOC(=O)CC1Sc2ccccc2NC1=O (stereo unspecified) | > 4 mM (inactive)
COc1c2c(cc3c1OCO3)C13C=C[C@H](OC)CC1N(C2)CC3O (stereo partly specified) | > 4 mM (inactive)
CNC(=O)Nc1ccc(C(=O)NC)cc1 | > 4 mM (inactive)
NC(C(=O)O)C(O)C(=O)O (stereo unspecified) | > 4 mM (inactive)
